Here are results for two molecules from article PMC6800809 (ChemMedChem, 2019).

The IC50 is the point on the concentration scale where inhibition reaches its midpoint. Usually MIC90 stands for the lowest concentration that inhibits either 90% of growth or 90% of the strains tested, depending on the study.

One data set deals with MbtA. As to conditions: 44.2 μM MbtA, ligand 0.75 mM.
Another data set has as its system HepG2 cells. In words: HepG2 cytotoxicity.
A further data set relates to M. tuberculosis H37Rv. In words: MIC determination against M. tuberculosis H37Rv in liquid medium. Type of data set: cell-based. Particulars: Mycobacterium tuberculosis, 120 h, read-out: H37Rv MIC90.
Another data set in a line: HepG2 cytotoxicity. As to conditions: human, HepG2 cells.

SMILES strings stand for the structures. In brackets after ≈: the same amount, converted by molar mass. Some results are limits rather than exact numbers.

As for `O=[N+]([O-])c1cc(C(F)(F)F)ccc1NCCc1c[nH]c2ccc(O)cc12` [Compound 5, 5-hydroxy-indol-3-ethylamino-(2-nitro-4-trifluoromethyl)benzene], in the data set with RAW 264.7 cells, 29 µM corresponded to half-maximal inhibition (IC50). In addition, the “Response in STD and Water-LOGSY experiments” value with MbtA is on record as “positive responses”. Also, the “HepG2 cytotoxicity, IC50 towards cells grown in both media” value with HepG2 cells (glucose and galactose media) is given as “relatively low cytotoxicity”. In addition, in the data set on HepG2 cells (ratio of HepG2 IC50 in glucose to galactose medium (mitochondrial toxicity)), the “Ratio (Glu/Gal)” value came out at 1.2.

Regarding `CO[C@H]1/C=C/O[C@@]2(C)Oc3c(C)c(O)c4c(O)c(c(/C=N/N5CCN(C)CC5)c(O)c4c3C2=O)NC(=O)/C(C)=C\C=C\[C@H](C)[C@H](O)[C@@H](C)[C@@H](O)[C@@H](C)[C@H](OC(C)=O)[C@@H]1C` [Rifampicin, reference compound], the MIC90 with M. tuberculosis H37Rv came out at 0.1 µM (≈ 0.0823 µg/mL). Besides, in “HepG2 cytotoxicity”, the IC50 at 2 days was greater than 100 µM.
